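Protocol summary: plate cells (96-well), add compound at 5 concentrations, incubate 48 h, interpolate endpoints linearly. GI50: concentration for 50% inhibition of growth.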 Calls of active or inactive are those of the source. Cut-off read from the data, not from the text of the source: active = GI50 up to about 1.1 µM and inactive = higher.
Tests used:
Assay in all cases: NCI anticancer screen, dose series, 48 h
OVCAR-3 = system: OVCAR-3
UO-31 = system: UO-31
SN12C = system: SN12C
UACC-62 = system: UACC-62
DU-145 = system: DU-145
SR = system: SR
OVCAR-4 = system: OVCAR-4
U-251 = system: U-251
Malme-3M = system: Malme-3M
NCI-H226 = system: NCI-H226
SW-620 = system: SW-620
HCT-15 = system: HCT-15
MDA-MB-435 = system: MDA-MB-435
HCC 2998 = system: HCC 2998
COLO 205 = system: COLO 205
M14 = system: M14
MDA-MB-231 = system: MDA-MB-231
OVCAR-5 = system: OVCAR-5
NCI-H23 = system: NCI-H23
RPMI-8226 = system: RPMI-8226
MOLT-4 = system: MOLT-4
MCF7 = system: MCF7
786-0 = system: 786-0
HL-60 = system: HL-60
NCI-H460 = system: NCI-H460
SF-295 = system: SF-295
SK-MEL-5 = system: SK-MEL-5
NCI/ADR-RES = system: NCI/ADR-RES
PC-3 = system: PC-3
SNB-75 = system: SNB-75
HCT-116 = system: HCT-116
SNB-19 = system: SNB-19
A549 = system: A549
IGROV-1 = system: IGROV-1
NCI-H522 = system: NCI-H522
HT-29 = system: HT-29
SK-MEL-28 = system: SK-MEL-28
SK-OV-3 = system: SK-OV-3
ACHN = system: ACHN
CAKI-1 = system: CAKI-1
TK-10 = system: TK-10
LOX IMVI = system: LOX IMVI
T47D = system: T47D
KM12 = system: KM12
Hs-578T = system: Hs-578T
K562 = system: K562
MDA-N = system: MDA-N
SK-MEL-2 = system: SK-MEL-2
CCRF-CEM = system: CCRF-CEM
RXF 393 = system: RXF 393
SF-539 = system: SF-539
EKVX = system: EKVX
SF-268 = system: SF-268
HOP-62 = system: HOP-62

Measured: GI50

O=C(/C=C/c1ccc2c(c1)OCO2)CC(=O)/C=C/c1ccc2c(c1)OCO2
> 100 µM: HCT-15
inactive: OVCAR-3 27.1 µM | UO-31 > 100 µM | SN12C > 100 µM | UACC-62 > 100 µM | DU-145 > 10 µM | SR 39.1 µM | OVCAR-4 19.1 µM | U-251 91.4 µM | Malme-3M > 100 µM | NCI-H226 > 100 µM | SW-620 > 100 µM | MDA-MB-435 > 100 µM | HCC 2998 > 100 µM | COLO 205 > 100 µM | M14 > 100 µM | MDA-MB-231 34.6 µM | OVCAR-5 > 100 µM | NCI-H23 19.6 µM | RPMI-8226 > 100 µM | MOLT-4 > 100 µM | MCF7 77.4 µM | 786-0 49.8 µM | HL-60 41.7 µM | NCI-H460 82.8 µM | SF-295 > 100 µM | SK-MEL-5 > 100 µM | NCI/ADR-RES 69.3 µM | PC-3 86.3 µM | SNB-75 > 100 µM | HCT-116 37.5 µM | SNB-19 92.7 µM | A549 > 100 µM | IGROV-1 23.5 µM | NCI-H522 45 µM | HT-29 > 100 µM | SK-MEL-28 > 10 µM | SK-OV-3 > 100 µM | ACHN 84.3 µM | CAKI-1 > 100 µM | TK-10 > 100 µM | LOX IMVI 12.1 µM | T47D > 100 µM | KM12 3.56 µM | Hs-578T 57.9 µM | K562 80.2 µM | MDA-N 40 µM | SK-MEL-2 > 100 µM | CCRF-CEM 35.6 µM | RXF 393 87.7 µM | SF-539 76.7 µM | EKVX 64 µM | SF-268 > 10 µM | HOP-62 > 100 µM
